Measurements as given in patent US20250340590A1, “PEPTIDE HAVING ANTI-INFLAMMATORY ACTIVITY AND USE THEREOF” (CAREGEN CO., LTD., priority 2021, published 2025).

Key:
Assay type in all cases: cell-based
[1] = system: Cox2; test: Cox2 mRNA level by RT-PCR in TNFα-induced mouse splenocytes; settings: TNFα 20 nM, peptide at 5 μM and 50 μM, 3 hours, compared to group not treated with the peptide
Description: In order to further confirm the anti-inflammatory effect of the peptide treatment of the present invention in addition to the results of Experimental Example <3-1>, inflammation was induced by treating mouse splenocytes with TNFα, and the expression levels of inflammatory cytokines TNFα and IL-1β, and Cox2, which is an inflammation-inducing marker, genes were confirmed. In order to induce inflammation, the cells were treated with cytokine TNFα, and since TNFα corresponds to a signaling protein associated with inflammation, IL-1β corresponds to a cytokine that promotes inflammation, and Cox2 is a protein associated with inflammation, the degree of inflammation can be confirmed by measuring the expression levels of TNFα, Cox2, and IL-1β genes.
Mouse splenocytes were dispensed into a 24-well plate at a concentration of 1× 10^7 cells/well and cultured until the next day. The medium was replaced with serum-free medium, and after 3 hours, the cells were treated with TNFα and the peptide of the present invention and then cultured for another 3 hours. In order to induce inflammation, the cells were treated with TNFα at 20 nM, and the peptide at 5 μM and 50 μM, respectively. […] After quantifying the amount of isolated RNA, cDNA was synthesized using a cDNA synthesis kit (Intron, Korea), PCR was performed using a PCR premix (Intron, Korea) and primers for TNFα, Cox2, and IL-1B. […]

[2] = system: TNFα; test: TNFα mRNA level by RT-PCR in LPS-induced mouse splenocytes; settings: LPS 2 μg/mL, peptide at 5 μM and 50 μM, 24 hours, compared to group not treated with the peptide
Description: Inflammation was induced in mouse splenocytes, and the expression levels of TNFα, and IL-6 genes, which is the inflammatory cytokines were confirmed. In order to induce inflammation, the cells were treated with LPS, an inflammation-inducing antigen, and since TNFα corresponds to a signaling protein associated with inflammation, and IL-6 corresponds to a cytokine that promotes inflammation, the degree of inflammation can be confirmed by measuring the expression levels of TNFα and IL-6 genes.
Mouse splenocytes were dispensed into a 24-well plate at a concentration of 1×10^7 cells/well and cultured until the next day. The medium was replaced with serum-free medium, and after 3 hours, the cells were treated with LPS and the peptide of the present invention and then cultured again for another 24 hours. In order to induce inflammation, the cells were treated with LPS at 2 μg/mL, and the peptide at […] and 50 μM, respectively. […] After quantifying the amount of isolated RNA, cDNA was synthesized using a cDNA synthesis kit (Intron, Korea), PCR was performed using a PCR premix (Intron, Korea) and primers for TNFα, and IL-6. […]

[3] = system: TNFα; test: TNFα secretion by ELISA in LPS-induced mouse splenocytes; settings: LPS 2 μg/mL, peptide at 5 μM and 50 μM, 24 hours
Description: Inflammation was induced in mouse splenocytes, and the secretion amounts of inflammatory cytokines TNFα, IL-1β, and IFNγ were confirmed. In order to induce inflammation, the cells were treated with an inflammation-inducing antigen, LPS, and since TNFα corresponds to a signaling protein associated with inflammation, IL-1β corresponds to a cytokine that promotes inflammation, and IFNγ also corresponds to a cytokine that promotes inflammation, the degree of inflammation can be confirmed by measuring the secretion amounts of TNFα, IL-1B, and IFNγ.
Mouse splenocytes were dispensed into a 24-well plate at a concentration of 1×10^7 cells/well and cultured until the next day. The medium was replaced with serum-free medium, and after 4 hours, the cells were treated with LPS and the peptide of the present invention and then cultured again for another 24 hours. In order to induce inflammation, the cells were treated with LPS at 2 μg/mL, and the peptide at 5 μM and 50 μM, respectively. […]

TWNS [peptide of the present invention]
decreased: mRNA expression level of Cox2 [1] | mRNA expression level of TNFα [2] | secretion amount of TNFα [3]
